Consider three compounds from patent US12606518B2, “Crystalline form of L-serine and process of preparing same” (ASTROGEN, INC., priority 2024, dated 2026).

Series [1] in a line: Saturated solubility in purified water. The series is classed as physicochemical. To be noted: on first addition of purified water. The procedure:
Then, 5 mL (or 10 mL) of this solution is taken, and placed into a 50 mL volumetric flask, purified water is filled to the mark and used as a test solution. • f. The test solution is analyzed according to HPLC operating conditions for the test of L-serine content.
b. The resulting solution is left at room temperature for 5 minutes and then vigorously mixed using a vortexer for 30 seconds.
c. The process b is repeated 6 times (about 30 minutes) and then the resultant is left at room temperature until the floating materials are settled.
d. The supernatant of the solution is placed into a 2.0 mL eppendorf tube and is subject to perform centrifugation using a centrifuge at 23° C. and 4,000 rpm for 20 minutes.
e. 1 mL of the supernatant of the solution is taken and placed into a 100 mL volumetric flask, and purified water is filled to the mark. Then, 5 mL (or 10 mL) of this solution is taken and placed into a 50 mL volumetric flask, purified water is filled to the mark, and used as a test solution.
f. The test solution is analyzed according to HPLC operating conditions for the test of L-serine content.

The nature of series [2]: Thermal stability test (storage at 40° C./75% RH for 8 weeks; HPLC content, visual discoloration, XRD). The series is classed as physicochemical. To be noted: for L-serine content from 0 week: before storage at 40° C./75% RH; for L-serine content from 0 week / L-serine content after 8 weeks: HPLC; for L-serine content after 8 weeks / Change in Crystal / Discoloration: after 8 weeks at 40° C./75% RH; for Change in Crystal: XRD; for Discoloration: visual. The procedure:
After 8 weeks, each sample was taken out and the content was analyzed using high-performance liquid chromatography (HPLC), and the presence of discoloration was visually confirmed as shown in FIG. 13. High-Performance Liquid Chromatography Conditions • Equipment: Waters Alliance e2695 • Column: […] 100, 150 mm×4.6 mm×5 μm • Column temperature: 30° C. • Flow rate: 1.0 mL/min • Detection: 210 nm, UV • Injection volume: 10 μL • Total analysis time: 40 mins • Mobile phase: […]

Series [3] in a line: Pharmacokinetic comparison after single oral administration. To be noted: 400 mg/kg oral once.
Series [4] in a line: Hygroscopicity test by dynamic vapor absorption (DVS). To be noted: 25° C., 2-98% relative humidity.
The mark [5] stands for this setting: mice, n=5, after baseline correction, 400 mg/kg.

For `N[C@@H](CO)C(=O)O` [Example 3, L-serine], the “Remark (hardening phenomenon during dissolution)” value in series [1] is reported as “The procedure went smoothly”. In series [2], the “L-serine content from 0 week” value was 99.3% →, the “L-serine content after 8 weeks” value is recorded as 99.2%, the “Change in Crystal” value was “retained” and the Discoloration entry is listed as “no change”. Moreover, in series [3] (mice), the “difference in maximum blood concentration (Cmax) compared to amorphous form and type A crystalline form” value is reported as “no significant difference”; the “increase of AUC0-12 compared to amorphous form and type A crystalline form of L-serine” value is on record as at least 2 times. In addition, in series [3] (setting [5]), the AUC0-12 amounted to 248.89 ± 37.34 µg·h/mL, the AUC0-inf came to 296.22 ± 69.63 µg·h/mL, the CI/F is 2.11 ± 0.49 (mg/kg)/(μg/mL)/h and the peak concentration (Cmax) is 75.48 ± 10.70 µg/mL. For the same compound, in series [3] (setting [5]), the MRT0-inf amounted to 5.29 ± 2.10 h, the Tmax amounted to 0.50 h and the t1/2 was determined as 3.56 ± 1.36 h. Further, in series [4], the “relative humidity at which moisture absorption started” value (“relative humidity” below) is listed as “around 80%”.

`N[C@@H](CO)C(=O)O` [Comparative Example 2, L-serine]: in series [2], the “L-serine content from 0 week” value was 99.1% →, the “L-serine content after 8 weeks” value was found to be 93.7%, the “Change in Crystal” value is reported as “retained” and the Discoloration entry is reported as “change to off-”. Besides, in series [3] (setting [5]), the AUC0-12 worked out at 165.81 ± 40.99 µg·h/mL, the AUC0-inf turned out to be 177.36 ± 39.9 µg·h/mL, the CI/F is given as 3.19 ± 0.67 (mg/kg)/(μg/mL)/h and the Cmax is 77.69 ± 8.49 µg/mL. In series [3] (setting [5]), the MRT0-inf worked out at 3.44 ± 1.49 h, the Tmax worked out at 0.50 h and the t1/2 stood at 2.56 ± 0.76 h. Also, in series [4], the “relative humidity” value was “around 70%”.

With `N[C@@H](CO)C(=O)O` [Comparative Example 1, L-serine], in series [2], the “L-serine content from 0 week” value is given as 99.0% →, the “L-serine content after 8 weeks” value is recorded as 90.4%, the “Change in Crystal” value is given as “change in part” and the Discoloration result was “change to off-”. In series [3] (setting [5]), the AUC0-12 came to 100.53 ± 20.15 µg·h/mL, the AUC0-inf is 121.45 ± 17.20 µg·h/mL and the CI/F is given as 3.35 ± 0.43 (mg/kg)/(μg/mL)/h. In series [3] (mouse, blood, po, 400 mg/kg, Cmax, mice, n=5, after baseline correction), this compound yielded a Cmax of 67.5 ± 25.9 µg/mL. The MRT inf in series [3] (mouse, blood, po, 400 mg/kg, MRT0-inf, mice, n=5, after baseline correction) was 5.11 ± 0.8 h. Further, the Tmax in series [3] (mouse, blood, po, 400 mg/kg, Tmax, mice, n=5, after baseline correction) turned out to be 0.25 h. The compound also gave a half-life in series [3] (mouse, blood, po, 400 mg/kg, t1/2, mice, n=5, after baseline correction) of 4.15 ± 0.99 h. For the same compound, the “relative humidity” value in series [4] was found to be 40%.

The Cmax is the maximum level reached in the sampled fluid or tissue. Usually Tmax stands for the time from dosing to the highest level. What is called MRT inf is a mean duration of stay, worked out from the concentration-time curve. By half-life is commonly meant the time in which the quantity being followed falls by half. Read a high half-life as slow loss.
